Test results: ChEMBL document CHEMBL2021794, “Synthesis, σ₁, σ₂-receptors binding affinity and antiproliferative action of new C1-substituted adamantanes” (Bioorg Med Chem, 2012)

Legend:
BXPC-3 [1] = assay: Cell cycle arrest in human BxPC3 cells assessed as accumulation at S phase at 0.5 uM after 24 hrs by propidium iodide staining based flow cytometry (reference value: 33%); assay type: functional
PC-3 [2] = assay: Cell cycle arrest in human PC3 cells assessed as accumulation at S phase at 0.5 uM after 24 hrs by propidium iodide staining based flow cytometry (reference value: 42%); assay type: functional
PC-3 [3] = assay: Induction of apoptosis in human PC3 cells assessed as cleaved caspase-3 containing cells at 50 uM after 24 hrs by FACS analysis (reference value: 3%); assay type: functional
Mus musculus [4] = assay: Toxicity in CD1 mouse assessed as weight loss at 40 mg/kg, ip after 3 to 4 weeks chronic treatment; assay type: organism-based; parameters: dose 40 mg/kg, route intraperitoneal; conditions: in vivo
HCT-15 = assay: Growth inhibition of human HCT15 cells after 48 hrs by SRB assay; assay type: functional; conditions: HCT-15, 48 h
BXPC-3 [5] = assay: Cell cycle arrest in human BxPC3 cells assessed as accumulation at < G1 phase at 50 uM after 24 hrs by propidium iodide staining based flow cytometry (reference value: 9%); assay type: functional
Mus musculus [6] = assay: Toxicity in CD1 mouse assessed as mortality at 40 mg/kg, ip after 3 to 4 weeks chronic treatment; assay type: organism-based; parameters: dose 40 mg/kg, route intraperitoneal; conditions: in vivo
IGROV-1 [7] = assay: Induction of apoptosis in human IGROV1 cells assessed as early apoptotic cells at 5 uM after 24 hrs by Annexin V/7-AAD staining based flow cytometry (reference value: 9%); assay type: functional
IGROV-1 [8] = assay: Induction of apoptosis in human IGROV1 cells assessed as late apoptotic cells at 5 uM after 24 hrs by Annexin V/7-AAD staining based flow cytometry (reference value: 4%); assay type: functional
IGROV-1 [9] = assay: Induction of apoptosis in human IGROV1 cells assessed as late apoptotic cells at 15 uM after 24 hrs by Annexin V/7-AAD staining based flow cytometry (reference value: 4%); assay type: functional
PC-3 [10] = assay: Cell cycle arrest in human PC3 cells assessed as accumulation at G1 phase at 15 uM after 24 hrs by propidium iodide staining based flow cytometry (reference value: 36%); assay type: functional
BXPC-3 [11] = assay: Cell cycle arrest in human BxPC3 cells assessed as accumulation at G2 phase at 0.5 uM after 24 hrs by propidium iodide staining based flow cytometry (reference value: 12%); assay type: functional
PC-3 [12] = assay: Cell cycle arrest in human PC3 cells assessed as accumulation at S phase at 5 uM after 24 hrs by propidium iodide staining based flow cytometry (reference value: 42%); assay type: functional
BXPC-3 [13] = assay: Cell cycle arrest in human BxPC3 cells assessed as accumulation at >G2 phase at 50 uM after 24 hrs by propidium iodide staining based flow cytometry (reference value: 6%); assay type: functional
IGROV-1 [14] = assay: Induction of apoptosis in human IGROV1 cells assessed as healthy cells at 0.5 uM after 24 hrs by Annexin V/7-AAD staining based flow cytometry (reference value: 86%); assay type: functional
IGROV-1 [15] = assay: Cell cycle arrest in human IGROV1 cells assessed as accumulation at G2 phase at 5 uM after 24 hrs by propidium iodide staining based flow cytometry (reference value: 19%); assay type: functional
IGROV-1 [16] = assay: Cell cycle arrest in human IGROV1 cells assessed as accumulation at < G1 phase at 15 uM after 24 hrs by propidium iodide staining based flow cytometry (reference value: 4%); assay type: functional
BXPC-3 [17] = assay: Induction of apoptosis in human BxPC3 cells assessed as healthy cells at 5 uM after 24 hrs by Annexin V/7-AAD staining based flow cytometry (reference value: 77%); assay type: functional
BXPC-3 [18] = assay: Cell cycle arrest in human BxPC3 cells assessed as accumulation at G2 phase at 50 uM after 24 hrs by propidium iodide staining based flow cytometry (reference value: 12%); assay type: functional
BXPC-3 [19] = assay: Cell cycle arrest in human BxPC3 cells assessed as accumulation at G1 phase at 15 uM after 24 hrs by propidium iodide staining based flow cytometry (reference value: 41%); assay type: functional
IGROV-1 [20] = assay: Growth inhibition of human IGROV1 cells after 48 hrs by SRB assay; assay type: functional; conditions: IGROV-1, 48 h
BXPC-3 [21] = assay: Cell cycle arrest in human BxPC3 cells assessed as accumulation at G2 phase at 15 uM after 24 hrs by propidium iodide staining based flow cytometry (reference value: 12%); assay type: functional
IGROV-1 [22] = assay: Induction of apoptosis in human IGROV1 cells assessed as healthy cells at 5 uM after 24 hrs by Annexin V/7-AAD staining based flow cytometry (reference value: 86%); assay type: functional
IGROV-1 [23] = assay: Induction of apoptosis in human IGROV1 cells assessed as total apoptotic death cells at 15 uM after 24 hrs by Annexin V/7-AAD staining based flow cytometry (reference value: 13%); assay type: functional
BXPC-3 [24] = assay: Induction of apoptosis in human BxPC3 cells assessed as total apoptotic death cells at 15 uM after 24 hrs by Annexin V/7-AAD staining based flow cytometry (reference value: 20%); assay type: functional
IGROV-1 [25] = assay: Induction of apoptosis in human IGROV1 cells assessed as cleaved caspase-3 containing cells at 15 uM after 24 hrs by FACS analysis (reference value: 4%); assay type: functional
BXPC-3 [26] = assay: Induction of apoptosis in human BxPC3 cells assessed as healthy cells at 0.5 uM after 24 hrs by Annexin V/7-AAD staining based flow cytometry (reference value: 77%); assay type: functional
LOX IMVI = assay: Growth inhibition of human LOXIMVI cells after 48 hrs by SRB assay; assay type: functional
PC-3 [27] = assay: Induction of apoptosis in human PC3 cells assessed as late apoptotic cells at 15 uM after 24 hrs by Annexin V/7-AAD staining based flow cytometry (reference value: 2%); assay type: functional
[28] = Displacement of [3H]BTX-B from Na+ channel site 2 after 60 mins by liquid scintillation spectroscopy
MIA PaCa-2 = assay: Antitumor activity against human MIAPaCa2 cells xenografted in SCID mouse assessed as reduction in tumor volume at 45 mg/kg, ip for 3 consecutive days; assay type: functional; conditions: MIA PaCa-2, ip, route intraperitoneal
BXPC-3 [29] = assay: Antitumor activity against human BxPC3 cells xenografted in SCID mouse assessed as tumor weight at 40 mg/kg, ip for 5 consecutive days and 2 administrations for one more week (reference value: 723 +/- 45 mg); assay type: functional; conditions: route intraperitoneal
DU-145 = assay: Growth inhibition of human DU145 cells after 48 hrs by SRB assay; assay type: functional; conditions: DU-145, 48 h
PC-3 [30] = assay: Induction of apoptosis in human PC3 cells assessed as healthy cells at 0.5 uM after 24 hrs by Annexin V/7-AAD staining based flow cytometry (reference value: 92%); assay type: functional
BXPC-3 [31] = assay: Cell cycle arrest in human BxPC3 cells assessed as accumulation at < G1 phase at 0.5 uM after 24 hrs by propidium iodide staining based flow cytometry (reference value: 9%); assay type: functional
IGROV-1 [32] = assay: Cell cycle arrest in human IGROV1 cells assessed as accumulation at S phase at 0.5 uM after 24 hrs by propidium iodide staining based flow cytometry (reference value: 29%); assay type: functional
PC-3 [33] = assay: Cell cycle arrest in human PC3 cells assessed as accumulation at S phase at 50 uM after 24 hrs by propidium iodide staining based flow cytometry (reference value: 42%); assay type: functional
[34] = read-out: LC50 (the source's name)

Which Activity (BXPC-3 [1]) does the source give for CN1CCN(c2ccc(C(c3ccccc3)C34CC5CC(CC(C5)C3)C4)cc2)CC1 (stereo not given) here?
The Activity was 34%.

And the Activity (PC-3 [2])?
Its Activity is 40%.

What about the Activity (PC-3 [3]) of the same molecule?
The Activity was 18%.

What about the Activity (Mus musculus [4]) of the same molecule?
The Activity was “Non-toxic”.

And the GI50 (HCT-15)?
Its GI50 is 5.54 µM.

What about the LC50 (HCT-15) of the same molecule?
The LC50 was 100 µM.

And the TGI (HCT-15)?
The TGI was 12.8 µM.

What about the Activity (BXPC-3 [5]) of the same molecule?
Its Activity is 25%.

And the Activity (Mus musculus [6])?
Its Activity is “Non-toxic”.

What about the Activity (IGROV-1 [7]) of the same molecule?
Its Activity is 8%.

What about the Activity (IGROV-1 [8]) of the same molecule?
Its Activity is 3%.

What about the Activity (IGROV-1 [9]) of the same molecule?
The Activity was 15%.

What about the Activity (PC-3 [10]) of the same molecule?
The Activity was 49%.

What about the Activity (BXPC-3 [11]) of the same molecule?
Its Activity is 12%.

What about the Activity (PC-3 [12]) of the same molecule?
The Activity was 42%.

What about the Activity (BXPC-3 [13]) of the same molecule?
The Activity was 5%.

And the Activity (IGROV-1 [14])?
Its Activity is 89%.

What about the Activity (IGROV-1 [15]) of the same molecule?
The Activity was 19%.

What about the Activity (IGROV-1 [16]) of the same molecule?
The Activity was 11%.

And the Activity (BXPC-3 [17])?
Its Activity is 65%.

What about the Activity (BXPC-3 [18]) of the same molecule?
Its Activity is 13%.

And the Activity (BXPC-3 [19])?
Its Activity is 51%.

What about the GI50 (IGROV-1 [20]) of the same molecule?
Its GI50 is 8.83 µM.

What about the TGI (IGROV-1 [20]) of the same molecule?
The TGI was 58.5 µM.

What about the CC50 (IGROV-1 [20]; [34]) of the same molecule?
Its CC50 is 100 µM.

What about the Activity (BXPC-3 [21]) of the same molecule?
Its Activity is 16%.

And the Activity (IGROV-1 [22])?
Its Activity is 88%.

What about the Activity (IGROV-1 [23]) of the same molecule?
The Activity was 33%.

What about the Activity (BXPC-3 [24]) of the same molecule?
Its Activity is 28%.

And the Activity (IGROV-1 [25])?
The Activity was 30%.

What about the Activity (BXPC-3 [26]) of the same molecule?
Its Activity is 84%.

And the GI50 (LOX IMVI)?
Its GI50 is 3.36 µM.

And the LC50 (concentration killing 50% of cells) (LOX IMVI)?
Its LC50 (concentration killing 50% of cells) is 8.41 µM.

And the TGI (LOX IMVI)?
The TGI was 5.88 µM.

And the Activity (PC-3 [27])?
The Activity was 3%.

What about the IC50 [28] of the same molecule?
The IC50 was 1.2 µM.

And the inhibition in vivo at 45 mg/kg (MIA PaCa-2)?
Its inhibition in vivo at 45 mg/kg is 47.5%.

What about the Activity (BXPC-3 [29]) of the same molecule?
Its Activity is 690 mg.

And the GI50 (DU-145)?
Its GI50 is 6.43 µM.

And the TGI (DU-145)?
The TGI was 65.5 µM.

And the CC50 (DU-145; [34])?
The CC50 was 100 µM.

What about the Activity (PC-3 [30]) of the same molecule?
Its Activity is 95%.

What about the Activity (BXPC-3 [31]) of the same molecule?
Its Activity is 11%.

And the Activity (IGROV-1 [32])?
The Activity was 28%.

What about the Activity (PC-3 [33]) of the same molecule?
Its Activity is 34%.
